Reference: patent publication US7897568B2, “Compositions for treatment of cancer” (priority 2006, dated 2011)
Where a SMILES comes first, the peptide text is derived from it. Where no end group is shown, it is not given here.

Columns and labels:
SNCG [1] = target: T1, SNCG (Homo sapiens, UniProt O76070); experiment: Far-UV circular dichroism of SNCG titrated with ANK peptide, calculated secondary structure; parameters: The SNCG coding region was amplified from the human cDNA clone; GST (N, cleaved yes); made in house; host or cells: Escherichia coli BL21 (DE3)
Method: FIGS. 1B and 1C provide far-UV circular dichroism (CD) spectra of SNCG (10 μM) with titration of ANK peptide […] (SEQ ID NO:1) at concentrations of 2 μM, 12 μM and 24 μM (FIG. 1B) and 25 μM, 50 μM and 100 μM (FIG. 1C). […] Spectra patterns correspond to random coil structures.
Titration of SNCG with the ANK peptide also gave rise to far-UV spectra characteristic of an unfolded protein (FIG. 1B) and produced no significant changes in calculated secondary structure.
The SNCG-ANK interaction was monitored using far-UV CD recorded on a rapid-scanning monochromator fitted with a CD module (RSM 1000, Olis Inc., Bogart Ga.). Samples containing 0.145 mg/ml SNCG were dialyzed into 5 mM sodium phosphate buffer, pH 7.0 for data acquisition. Spectra were averaged from 12 scans recorded at 25° C. The baseline was corrected by subtracting the spectra measured under identical conditions for the remaining buffer after dialysis. Peptide was reconstituted into flow-through buffer after dialysis and used for titration. Molar ellipticity [θ] was calculated according to the formula [θ]=[θ]×100/(nlc), where n represents the number of amino acids in the protein, l represents the path length of the cuvette in centimeters and c represents the concentration in millimolar. Percentage secondary structure was calculated using the web-based program CDNN (Bohm et al. Protein Eng. 1992 5:191-195).

SNCG [2] = target: T1, SNCG; experiment: ANS fluorescence of the SNCG-ANK peptide complex; format: binding; parameters: The SNCG coding region was amplified from the human cDNA clone; GST (N, cleaved yes); made in house; host or cells: Escherichia coli BL21 (DE3); conditions: SNCG 30 μM, ANK peptide 240 μM, 0.02 mg/mL ANS; versus peptide only
Description: ANS fluorescence was also utilized to study the conformational properties of SNCG and the SNCG-ANK peptide interaction (See FIG. 2C). Changes in ANS fluorescence intensity are frequently used to monitor formation of partially folded intermediates during protein unfolding and refolding (Semisotnov et al. Biopolymers 1991 31:119-128), as well as to analyze the hydrophobic surfaces of proteins (Stryer, L. J. Mol. Biol. 1965 13:482-495). The interaction of ANS with solvent-exposed hydrophobic clusters is accompanied by a considerable increase in the dye fluorescence intensity and a pronounced blue shift of the fluorescence maximum. […] The addition of ANK peptide induced significant changes in ANS fluorescence properties, including a dramatic increase in the fluorescence intensity and a blue shift in λmax. […] Importantly, formation of the SNCG-ANK complex is accompanied by an approximate 20% decrease in ANS fluorescence intensity of only peptide which is affected by the presence of SNCG, confirming the interaction between SNCG and ANK peptide.

SNCG [3] = target: T1, SNCG; experiment: Co-immunoprecipitation of EGFP-ANK with anti-SNCG antibody; format: binding; parameters: expressed in transfected cells; host or cells: MCF7-SNCG (MCF7 stably expressing SNCG)

T1 sequence (O76070 whole entry): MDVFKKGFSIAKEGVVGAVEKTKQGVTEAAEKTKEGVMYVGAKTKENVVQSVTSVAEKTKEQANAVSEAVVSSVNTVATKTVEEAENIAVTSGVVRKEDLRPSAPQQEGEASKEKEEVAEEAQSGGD

## CC[C@H](C)[C@H](NC(=O)[C@H](CS)NC(=O)CNC(=O)[C@H](CC(C)C)NC(=O)[C@H](Cc1c[nH]cn1)NC(=O)CNC(=O)[C@H](Cc1c[nH]cn1)NC(=O)[C@H](CCC(N)=O)NC(=O)[C@H](CO)NC(=O)[C@H](C)NC(=O)[C@@H](NC(=O)[C@H](Cc1c[nH]cn1)NC(=O)[C@H](CC(C)C)NC(=O)[C@H](C)NC(=O)[C@H](CO)NC(=O)[C@H](CC(N)=O)NC(=O)CNC(=O)[C@H](CCCCN)NC(C)=O)C(C)C)C(=O)N[C@@H](CCC(N)=O)C(=O)N[C@H](C(=O)N[C@@H](CC(C)C)C(=O)N[C@H](C(=O)N[C@@H](CCCNC(=N)N)C(=O)N[C@@H](Cc1ccc(O)cc1)C(=O)NCC(=O)N[C@@H](C)C(=O)N[C@@H](CC(N)=O)C(=O)N[C@H](C(=O)N[C@H](C(=O)N[C@@H](CCSC)C(=O)N[C@@H](CCC(N)=O)C(=O)N[C@@H](CC(N)=O)C(=O)N[C@@H](Cc1c[nH]cn1)C(=O)NCC(N)=O)[C@@H](C)O)C(C)C)C(C)C)[C@@H](C)O [ANK peptide] (Ac-KGNSALHVASQHGHLGCIQTLVRYGANVTMQNHG-NH2)
SNCG [1]; SNCG + 2.0 μM ANK Peptide
  Structure (%) Antiparallel: 9.00%
  Structure (%) Beta-Turn: 17.6%
  Structure (%) Helix: 29.2%
  Structure (%) Parallel: 10.3%
  Structure (%) Random Coil: 36.0%
SNCG [1]; SNCG + 12 μM ANK Peptide
  Structure (%) Antiparallel: 8.80%
  Structure (%) Beta-Turn: 17.4%
  Structure (%) Helix: 30.0%
  Structure (%) Parallel: 10.0%
  Structure (%) Random Coil: 35.4%
SNCG [1]; SNCG + 24 μM ANK Peptide
  Structure (%) Antiparallel: 8.70%
  Structure (%) Beta-Turn: 17.3%
  Structure (%) Helix: 30.4%
  Structure (%) Parallel: 9.90%
  Structure (%) Random Coil: 35.0%
SNCG [2]
  decrease in ANS fluorescence intensity on formation of the SNCG-ANK complex: ~20%

## EGFP-ANK: ANK peptide expressed as a fusion protein with its amino-terminal linked to EGFP protein, approximately 37 kDa ({EGFP}-KGNSALHVASQHGHLGCIQTLVRYGANVTMQNHG)
SNCG [3]; MCF7-SNCG cells transfected with pEGFP-ANK, western blot with anti-GFP
  co-precipitation with SNCG in anti-SNCG IP complexes: co-precipitate with SNCG
SNCG [3]; MCF7-neo cells (SNCG negative control)
  presence in anti-SNCG IP complexes: not in the IP complexes
